What was measured:
Settings in all cases: sulfur source concentration 200 µM; S. cerevisiae S288C/BY sul1Δ sul2Δ soa1Δ with transporter ortholog inserted at SOA1 locus; sulfur-free B medium, 4% glucose, pH 6.5, sole sulfur source
[1] = test system: Aspergillus nidulans (IAM 2006)_astA; experiment: maximal culture density with compound as sole sulfur source (OD600); higher = better growth
Protocol: (§1)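 S. cerevisiae sul1Δ sul2Δ soa1Δ strains expressing 20 fungal SOA1 orthologs (or no transporter, 'soa1 del') were grown in liquid sulfur-free B medium, 4% glucose, pH 6.5 (7 mM K2HPO4). The strains were sulfur-starved for 3 days beforehand. Each sulfur compound was the sole sulfur source at 200 µM (sulfate also at 40 mM). OD600 curves of duplicate cultures were averaged and fitted (logistic / Richards, GroFit) to give maximal growth rate, maximal density and lag phase; temperature not stated.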

[2] = test system: Aspergillus nidulans_CBF80346; experiment: as above
Protocol: as §1

[3] = test system: Aspergillus nidulans_XP_660670; experiment: as above
Protocol: as §1

[4] = test system: Aspergillus nidulans_XP_661711; experiment: as above
Protocol: as §1

[5] = test system: Aspergillus nidulans_XP_661733; experiment: as above
Protocol: as §1

[6] = test system: Fusarium oxysporum_ENH65823; experiment: as above
Protocol: as §1

[7] = test system: Metarhizium robertsii_XP_007821441; experiment: as above
Protocol: as §1

[8] = test system: Metarhizium robertsii_XP_007822519; experiment: as above
Protocol: as §1

[9] = test system: Saccharomyces cerevisiae_SOA1; experiment: as above
Protocol: as §1

[10] = test system: Saccharomyces eubayanus_SOA1; experiment: as above
Protocol: as §1

[11] = test system: Saccharomyces eubayanus_SOA2; experiment: as above
Protocol: as §1

[12] = test system: Saccharomyces uvarum_SOA2; experiment: as above
Protocol: as §1

soa1 del [13] = experiment: as above
Protocol: as §1

[14] = test system: Aspergillus nidulans (IAM 2006)_astA; experiment: maximal growth rate with compound as sole sulfur source (OD600 per h); higher = better growth / uptake of the sulfur source
Protocol: as §1

[15] = test system: Aspergillus nidulans_CBF74694; experiment: as above
Protocol: as §1

[16] = test system: Aspergillus nidulans_CBF80346; experiment: as above
Protocol: as §1

[17] = test system: Aspergillus nidulans_XP_660563; experiment: as above
Protocol: as §1

[18] = test system: Aspergillus nidulans_XP_660670; experiment: as above
Protocol: as §1

[19] = test system: Aspergillus nidulans_XP_661711; experiment: as above
Protocol: as §1

[20] = test system: Aspergillus nidulans_XP_661733; experiment: as above
Protocol: as §1

[21] = test system: Aspergillus nidulans_XP_681611; experiment: as above
Protocol: as §1

[22] = test system: Fusarium oxysporum_ENH65823; experiment: as above
Protocol: as §1

[23] = test system: Metarhizium robertsii_XP_007821441; experiment: as above
Protocol: as §1

[24] = test system: Metarhizium robertsii_XP_007822519; experiment: as above
Protocol: as §1

[25] = test system: Metarhizium robertsii_XP_007823832; experiment: as above
Protocol: as §1

[26] = test system: Ogataea parapolymorpha_XP_013932458; experiment: as above
Protocol: as §1

[27] = test system: Ogataea parapolymorpha_XP_013935289; experiment: as above
Protocol: as §1

[28] = test system: Ogataea parapolymorpha_XP_013936897; experiment: as above
Protocol: as §1

[29] = test system: Saccharomyces cerevisiae_SOA1; experiment: as above
Protocol: as §1

[30] = test system: Saccharomyces eubayanus_SOA1; experiment: as above
Protocol: as §1

[31] = test system: Saccharomyces eubayanus_SOA2; experiment: as above
Protocol: as §1

[32] = test system: Saccharomyces uvarum_SOA1; experiment: as above
Protocol: as §1

[33] = test system: Saccharomyces uvarum_SOA2; experiment: as above
Protocol: as §1

soa1 del [34] = experiment: as above
Protocol: as §1

## O=S(O)O [sulfite]
[1]
  maximal culture density: 1.6
[2]
  maximal culture density: 0.262
[3]
  maximal culture density: 0.243
[4]
  maximal culture density: 0.244
[5]
  maximal culture density: 0.274
[6]
  maximal culture density: 0.256
[7]
  maximal culture density: 0.235
[8]
  maximal culture density: 1
[9]
  maximal culture density: 1.6
[10]
  maximal culture density: 1.58
[11]
  maximal culture density: 0.645
[12]
  maximal culture density: 1.44
soa1 del [13]
  maximal culture density: 0.222
[14]
  maximal growth rate: 0.104
[15]
  maximal growth rate: 0.00286
[16]
  maximal growth rate: 0.00484
[17]
  maximal growth rate: 0.00646
[18]
  maximal growth rate: 0.00402
[19]
  maximal growth rate: 0.004
[20]
  maximal growth rate: 0.0047
[21]
  maximal growth rate: 0.00588
[22]
  maximal growth rate: 0.00381
[23]
  maximal growth rate: 0.00339
[24]
  maximal growth rate: 0.0114
[25]
  maximal growth rate: 0.0855
[26]
  maximal growth rate: 0.0051
[27]
  maximal growth rate: 0.0989
[28]
  maximal growth rate: 0.00463
[29]
  maximal growth rate: 0.12
[30]
  maximal growth rate: 0.0839
[31]
  maximal growth rate: 0.00564
[32]
  maximal growth rate: 0.0915
[33]
  maximal growth rate: 0.0556
soa1 del [34]
  maximal growth rate: 0.00378

## N[C@@H](CS(=O)(=O)O)C(=O)O [L-cysteic acid]
[1]
  maximal culture density: 1.41
[2]
  maximal culture density: 0.823
[3]
  maximal culture density: 1.13
[4]
  maximal culture density: 1.16
[5]
  maximal culture density: 1.3
[6]
  maximal culture density: 1.16
[7]
  maximal culture density: 0.3
[8]
  maximal culture density: 1.38
[9]
  maximal culture density: 1.46
[10]
  maximal culture density: 0.561
[11]
  maximal culture density: 0.254
[12]
  maximal culture density: 0.234
soa1 del [13]
  maximal culture density: 0.254
[14]
  maximal growth rate: 0.0282
[15]
  maximal growth rate: 0.003
[16]
  maximal growth rate: 0.00644
[17]
  maximal growth rate: 0.00641
[18]
  maximal growth rate: 0.00837
[19]
  maximal growth rate: 0.00852
[20]
  maximal growth rate: 0.0304
[21]
  maximal growth rate: 0.00678
[22]
  maximal growth rate: 0.01
[23]
  maximal growth rate: 0.00544
[24]
  maximal growth rate: 0.00861
[25]
  maximal growth rate: 0.028
[26]
  maximal growth rate: 0.00397
[27]
  maximal growth rate: 0.035
[28]
  maximal growth rate: 0.00557
[29]
  maximal growth rate: 0.037
[30]
  maximal growth rate: 0.00648
[31]
  maximal growth rate: 0.00291
[32]
  maximal growth rate: 0.00754
[33]
  maximal growth rate: 0.00261
soa1 del [34]
  maximal growth rate: 0.00337
